# Data reported in ChEMBL document CHEMBL1201862, “PubChem BioAssay data set” (2004).
# Activity calls are given as the source filed them.
# How the values were obtained:
# [1] = target: Photoreceptor-specific nuclear receptor (Homo sapiens, UniProt Q9Y5X4); test: ligands suppressing NR2E3 nuclear receptor activity – biochemical, TR-FRET, dose response (AID 463256); assay type: functional
# [2] = target: 72 kDa type IV collagenase (Homo sapiens, UniProt P08253); test: Dose Response validation of uHTS RPN11 inhibitor hits using a MMP-2 Fluorescence assay.; assay type: functional
# Prothrombin = Prothrombin (Bos taurus, UniProt P00735); test: thrombin protease inhibitors – biochemical, fluorescence polarization, uHTS hits, dose response (AID 602369); assay type: functional
# [3] = target: 26S proteasome non-ATPase regulatory subunit 14 (Homo sapiens, UniProt O00487); test: inhibition of proteasome subunit RPN11 – biochemical, fluorescence polarization, uHTS hits, confirmation (AID 602368); assay type: functional
# [4] = target: Peroxisome proliferator-activated receptor gamma/Nuclear receptor corepressor 2 (Homo sapiens, UniProt P37231+Q9Y618); test: Counterscreen for NR2E3 inverse agonists: TR-FRET-based biochemical high throughput dose response assay to identify inverse agonists of the interaction between peroxisome proliferator-activated receptor gamma (PPARg) and nuclear receptor co-repressor 2 (NCOR2).; assay type: functional
# [5] = target: T1, Carboxy-terminal domain RNA polymerase II polypeptide A small phosphatase 1 (Homo sapiens, UniProt Q9GZU7); test: CTDSP1 inhibitors, concentration-response, biochemical, absorbance readout, ultra-high-throughput screen actives (AID 540297); assay type: functional
# T1 sequence (Q9GZU7 whole entry): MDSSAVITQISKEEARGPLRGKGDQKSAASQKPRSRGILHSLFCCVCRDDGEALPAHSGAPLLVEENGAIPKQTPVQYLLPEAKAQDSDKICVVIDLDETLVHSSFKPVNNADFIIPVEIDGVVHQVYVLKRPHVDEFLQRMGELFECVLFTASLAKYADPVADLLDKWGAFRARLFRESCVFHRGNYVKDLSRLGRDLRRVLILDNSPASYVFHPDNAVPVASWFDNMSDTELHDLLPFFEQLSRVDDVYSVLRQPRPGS
# [6] = target: T2, Tyrosine-protein phosphatase non-receptor type 5 (Homo sapiens, UniProt P54829); test: PTPN5 enzyme inhibition – biochemical, fluorescence intensity, uHTS hits, confirmation (AID 602372); assay type: functional; settings: read-out: IC50_Mean
# T2 sequence (P54829 whole entry): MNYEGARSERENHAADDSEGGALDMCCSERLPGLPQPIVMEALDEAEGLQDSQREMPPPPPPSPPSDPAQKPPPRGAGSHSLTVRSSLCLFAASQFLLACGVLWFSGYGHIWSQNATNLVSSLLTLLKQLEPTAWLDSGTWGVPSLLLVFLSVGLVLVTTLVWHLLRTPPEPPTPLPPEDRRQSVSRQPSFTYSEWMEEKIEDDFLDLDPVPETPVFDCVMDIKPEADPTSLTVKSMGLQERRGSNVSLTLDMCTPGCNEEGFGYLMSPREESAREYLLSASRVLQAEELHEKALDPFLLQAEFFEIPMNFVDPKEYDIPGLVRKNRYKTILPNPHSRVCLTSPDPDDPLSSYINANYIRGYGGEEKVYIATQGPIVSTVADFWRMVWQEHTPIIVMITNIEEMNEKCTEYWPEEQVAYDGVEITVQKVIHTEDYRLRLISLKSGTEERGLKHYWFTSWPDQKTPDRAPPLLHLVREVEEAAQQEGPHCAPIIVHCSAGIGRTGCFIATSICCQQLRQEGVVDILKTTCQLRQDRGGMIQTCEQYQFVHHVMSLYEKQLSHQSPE
# [7] = target: Dual specificity protein phosphatase 3 (Homo sapiens, UniProt P51452); test: VHR phosphatase inhibition, dose response, selectivity assay for STEP inhibitor project, biochemical (AID 602374); assay type: functional; settings: read-out: IC50_Mean
# [8] = target: T3, Tyrosine-protein phosphatase non-receptor type 11 (Homo sapiens, UniProt Q06124); test: PTPN11 enzyme inhibitors – biochemical, selectivity assay for STEP inhibitor project, dose response (AID 602367); assay type: functional; settings: read-out: IC50_Mean
# T3 sequence (Q06124 whole entry): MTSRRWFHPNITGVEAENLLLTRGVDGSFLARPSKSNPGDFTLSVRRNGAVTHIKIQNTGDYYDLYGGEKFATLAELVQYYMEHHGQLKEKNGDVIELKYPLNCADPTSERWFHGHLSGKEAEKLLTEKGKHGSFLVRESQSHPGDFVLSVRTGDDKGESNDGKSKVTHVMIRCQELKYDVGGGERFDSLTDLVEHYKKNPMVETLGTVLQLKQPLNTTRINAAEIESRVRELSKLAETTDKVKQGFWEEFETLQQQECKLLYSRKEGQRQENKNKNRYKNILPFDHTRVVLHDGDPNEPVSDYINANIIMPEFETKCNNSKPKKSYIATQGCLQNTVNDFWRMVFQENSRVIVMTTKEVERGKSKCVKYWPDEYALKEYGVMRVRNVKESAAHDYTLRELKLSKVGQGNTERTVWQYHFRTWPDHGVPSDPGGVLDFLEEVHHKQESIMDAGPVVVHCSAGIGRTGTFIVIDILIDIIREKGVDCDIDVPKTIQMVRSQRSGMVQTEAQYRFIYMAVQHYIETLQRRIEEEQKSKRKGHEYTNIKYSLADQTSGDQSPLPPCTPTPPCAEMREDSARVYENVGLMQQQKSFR
# Cytochrome P450 2C9 = Cytochrome P450 2C9 (Homo sapiens, UniProt P11712)
# Cytochrome P450 2C19 = Cytochrome P450 2C19 (Homo sapiens, UniProt P33261); test: Cytochrome panel assay with activity outcomes. Panel member name: p450-cyp2c19 Compounds with AC50 equal or less than 10 uM are considered active; assay type: functional; settings: read-out: AC50
# [9] = target: T4, Trace amine-associated receptor 1 (Homo sapiens, UniProt Q96RJ0); test: Counterscreen for agonists of the human trace amine associated receptor 1 (hTAAR1): Fluorescence-based cell-based high throughput dose response assay to identify hTAAR1 agonist that also desensitize TAAR1 receptor response.; assay type: functional
# T4 sequence (Q96RJ0 whole entry): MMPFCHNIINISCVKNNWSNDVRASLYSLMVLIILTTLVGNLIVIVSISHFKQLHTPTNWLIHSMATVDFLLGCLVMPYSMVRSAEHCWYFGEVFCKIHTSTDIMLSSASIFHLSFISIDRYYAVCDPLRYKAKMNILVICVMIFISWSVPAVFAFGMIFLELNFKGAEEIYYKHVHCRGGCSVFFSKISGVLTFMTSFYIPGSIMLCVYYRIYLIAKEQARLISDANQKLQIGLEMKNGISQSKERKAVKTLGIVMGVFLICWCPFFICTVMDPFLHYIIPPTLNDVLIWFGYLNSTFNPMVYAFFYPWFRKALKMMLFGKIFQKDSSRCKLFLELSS
# [10] = target: T4, Trace amine-associated receptor 1; test: Fluorescence-based cell-based high throughput dose response assay to identify agonists of the human trace amine associated receptor 1 (TAAR1).; assay type: functional
# cells [11] = assay type: functional, cell-based
# cells [12] = assay type: functional, cell-based; remark: listed apart in the source
# [13] = target: Ras and Rab interactor 1/Tyrosine-protein kinase ABL1 (Homo sapiens, UniProt P00519+Q13671); test: biochemical; assay type: functional;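 also: biochemical TR-FRET dose-response test measuring inhibition of binding between Rin1 and Abl proteins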
# [14] = target: T5, Histone-lysine N-methyltransferase NSD2 (Homo sapiens, UniProt O96028); assay type: biochemical
# T5 sequence (O96028 whole entry): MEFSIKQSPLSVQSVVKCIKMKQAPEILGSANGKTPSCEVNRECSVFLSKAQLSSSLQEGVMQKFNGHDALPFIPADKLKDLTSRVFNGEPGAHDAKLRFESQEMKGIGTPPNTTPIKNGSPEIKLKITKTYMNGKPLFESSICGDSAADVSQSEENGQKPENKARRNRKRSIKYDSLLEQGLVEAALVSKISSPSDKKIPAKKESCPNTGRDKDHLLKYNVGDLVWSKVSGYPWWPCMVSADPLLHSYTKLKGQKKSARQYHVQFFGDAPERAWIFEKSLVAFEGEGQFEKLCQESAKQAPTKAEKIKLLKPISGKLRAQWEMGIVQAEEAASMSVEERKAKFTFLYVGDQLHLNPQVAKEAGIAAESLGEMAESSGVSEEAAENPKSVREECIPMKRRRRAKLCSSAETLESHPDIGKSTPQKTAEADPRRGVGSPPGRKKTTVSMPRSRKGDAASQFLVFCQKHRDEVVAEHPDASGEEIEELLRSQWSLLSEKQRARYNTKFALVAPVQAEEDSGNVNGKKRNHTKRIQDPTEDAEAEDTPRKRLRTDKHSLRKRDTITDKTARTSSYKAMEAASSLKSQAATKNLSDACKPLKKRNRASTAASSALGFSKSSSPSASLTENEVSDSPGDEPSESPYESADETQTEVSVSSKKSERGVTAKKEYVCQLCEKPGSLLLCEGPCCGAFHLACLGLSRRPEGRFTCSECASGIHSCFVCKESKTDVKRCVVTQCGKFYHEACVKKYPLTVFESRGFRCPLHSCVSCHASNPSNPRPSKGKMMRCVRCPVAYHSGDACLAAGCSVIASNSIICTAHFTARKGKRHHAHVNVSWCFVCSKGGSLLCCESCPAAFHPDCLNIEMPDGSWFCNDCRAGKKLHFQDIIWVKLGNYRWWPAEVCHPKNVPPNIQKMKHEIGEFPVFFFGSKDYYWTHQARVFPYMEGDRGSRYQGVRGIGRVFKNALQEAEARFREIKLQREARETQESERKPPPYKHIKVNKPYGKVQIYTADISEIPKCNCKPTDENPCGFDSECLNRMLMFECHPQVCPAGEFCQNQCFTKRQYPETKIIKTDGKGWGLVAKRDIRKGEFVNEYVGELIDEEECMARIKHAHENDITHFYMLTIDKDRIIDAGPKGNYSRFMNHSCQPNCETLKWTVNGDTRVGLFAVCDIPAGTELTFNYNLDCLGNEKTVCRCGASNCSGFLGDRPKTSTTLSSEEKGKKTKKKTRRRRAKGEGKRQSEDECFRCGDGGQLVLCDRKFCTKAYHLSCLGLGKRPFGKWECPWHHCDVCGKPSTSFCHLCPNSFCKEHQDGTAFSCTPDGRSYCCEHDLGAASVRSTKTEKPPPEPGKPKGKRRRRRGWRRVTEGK
# Nonstructural protein 1 = Nonstructural protein 1 (Influenza A virus, UniProt Q194T2); assay type: functional, Influenza A virus (A/California/07/2009(H1N1))
# [15] = HIV-1 AD8 envelope cell-cell fusion blockers – cherry-pick, dose response (AID 652062); assay type: functional, cell-based;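 also: luciferase signal from cell-cell fusion driven by HIV-1 clade B AD8 Env; potency is for inhibitors of fusion seen as a drop in luminescence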
# [16] = blockers of HIV-1 envelope-mediated cell-cell fusion – cherry-pick, dose response (AID 652057); assay type: functional, cell-based
# [17] = off-target signal loss in HeLa-CEM21 co-culture – HeLa F-luc CTL cells, cherry-picked, counter-screen for HIV-1 Env fusion inhibitor project, dose response (AID 652040); assay type: functional, cell-based;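 also: potency for signal decrease marking cytotoxic or nonspecific inhibition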
# [18] = blockers of HIV-1 ZM109 envelope-driven cell-cell fusion – HeLa effector, CEM target cells, luciferase, cherry-pick, dose response (AID 652058); assay type: functional, cell-based;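 also: luciferase signal from HIV-1 Env mediated cell-cell fusion of effector and target cells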
# cells [19] = assay type: functional, cell-based; settings: HEK-CNG
# Galanin receptor type 3 = target: T6, Galanin receptor type 3 (Homo sapiens, UniProt O60755); test: Fluorescence-based cell-based primary high throughput dose response assay to identify antagonists of the Galanin Receptor 3 (GalR3).; assay type: functional
# T6 sequence (O60755 whole entry): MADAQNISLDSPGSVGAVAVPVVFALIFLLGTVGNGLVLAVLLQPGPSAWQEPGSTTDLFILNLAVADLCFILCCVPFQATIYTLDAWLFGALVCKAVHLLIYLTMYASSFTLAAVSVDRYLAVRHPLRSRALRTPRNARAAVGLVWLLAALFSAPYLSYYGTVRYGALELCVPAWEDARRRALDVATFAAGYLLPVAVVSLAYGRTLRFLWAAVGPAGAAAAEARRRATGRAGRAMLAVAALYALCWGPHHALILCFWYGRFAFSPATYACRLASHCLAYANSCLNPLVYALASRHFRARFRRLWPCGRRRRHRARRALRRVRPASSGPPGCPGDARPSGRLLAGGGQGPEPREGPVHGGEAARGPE
# Sequence of 26S proteasome non-ATPase regulatory subunit 14 (O00487 whole entry): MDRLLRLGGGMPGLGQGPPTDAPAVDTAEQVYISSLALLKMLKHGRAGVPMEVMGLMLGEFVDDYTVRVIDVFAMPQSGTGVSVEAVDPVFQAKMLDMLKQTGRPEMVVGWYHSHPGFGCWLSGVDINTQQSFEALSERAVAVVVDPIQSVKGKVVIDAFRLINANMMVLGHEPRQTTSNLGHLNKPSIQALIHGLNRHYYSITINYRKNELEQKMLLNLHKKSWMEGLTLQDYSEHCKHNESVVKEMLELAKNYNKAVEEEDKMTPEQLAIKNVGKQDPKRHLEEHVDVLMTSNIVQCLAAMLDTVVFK
# Sequence of Ras and Rab interactor 1/Tyrosine-protein kinase ABL1 (P00519 whole entry): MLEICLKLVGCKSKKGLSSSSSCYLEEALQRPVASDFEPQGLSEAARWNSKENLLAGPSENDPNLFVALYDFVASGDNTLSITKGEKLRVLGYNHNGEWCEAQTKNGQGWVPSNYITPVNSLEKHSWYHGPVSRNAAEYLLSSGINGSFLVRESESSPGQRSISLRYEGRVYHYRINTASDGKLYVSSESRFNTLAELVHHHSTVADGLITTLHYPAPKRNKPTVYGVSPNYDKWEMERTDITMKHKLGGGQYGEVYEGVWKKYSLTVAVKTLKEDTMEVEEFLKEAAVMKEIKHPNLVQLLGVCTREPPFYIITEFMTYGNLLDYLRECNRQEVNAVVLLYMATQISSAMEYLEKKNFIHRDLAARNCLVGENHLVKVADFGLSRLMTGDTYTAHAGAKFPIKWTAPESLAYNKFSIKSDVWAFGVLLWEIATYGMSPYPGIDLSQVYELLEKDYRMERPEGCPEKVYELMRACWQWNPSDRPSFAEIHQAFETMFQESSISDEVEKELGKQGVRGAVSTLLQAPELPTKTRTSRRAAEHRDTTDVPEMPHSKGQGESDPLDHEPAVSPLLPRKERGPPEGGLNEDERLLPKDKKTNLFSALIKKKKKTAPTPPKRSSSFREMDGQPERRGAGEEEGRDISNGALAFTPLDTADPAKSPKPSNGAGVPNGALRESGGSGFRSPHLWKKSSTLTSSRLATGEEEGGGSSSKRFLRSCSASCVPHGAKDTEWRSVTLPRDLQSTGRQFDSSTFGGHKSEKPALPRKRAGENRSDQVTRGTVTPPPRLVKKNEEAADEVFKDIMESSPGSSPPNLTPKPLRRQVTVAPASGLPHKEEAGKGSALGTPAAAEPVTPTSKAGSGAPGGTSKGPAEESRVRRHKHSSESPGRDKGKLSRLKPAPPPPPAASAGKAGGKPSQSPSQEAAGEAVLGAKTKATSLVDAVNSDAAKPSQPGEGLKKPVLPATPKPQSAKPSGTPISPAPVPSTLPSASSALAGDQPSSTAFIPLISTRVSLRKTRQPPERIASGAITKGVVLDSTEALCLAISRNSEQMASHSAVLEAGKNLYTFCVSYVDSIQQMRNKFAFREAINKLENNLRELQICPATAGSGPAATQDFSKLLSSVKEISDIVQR
# Sequence of Ras and Rab interactor 1/Tyrosine-protein kinase ABL1 (Q13671 whole entry): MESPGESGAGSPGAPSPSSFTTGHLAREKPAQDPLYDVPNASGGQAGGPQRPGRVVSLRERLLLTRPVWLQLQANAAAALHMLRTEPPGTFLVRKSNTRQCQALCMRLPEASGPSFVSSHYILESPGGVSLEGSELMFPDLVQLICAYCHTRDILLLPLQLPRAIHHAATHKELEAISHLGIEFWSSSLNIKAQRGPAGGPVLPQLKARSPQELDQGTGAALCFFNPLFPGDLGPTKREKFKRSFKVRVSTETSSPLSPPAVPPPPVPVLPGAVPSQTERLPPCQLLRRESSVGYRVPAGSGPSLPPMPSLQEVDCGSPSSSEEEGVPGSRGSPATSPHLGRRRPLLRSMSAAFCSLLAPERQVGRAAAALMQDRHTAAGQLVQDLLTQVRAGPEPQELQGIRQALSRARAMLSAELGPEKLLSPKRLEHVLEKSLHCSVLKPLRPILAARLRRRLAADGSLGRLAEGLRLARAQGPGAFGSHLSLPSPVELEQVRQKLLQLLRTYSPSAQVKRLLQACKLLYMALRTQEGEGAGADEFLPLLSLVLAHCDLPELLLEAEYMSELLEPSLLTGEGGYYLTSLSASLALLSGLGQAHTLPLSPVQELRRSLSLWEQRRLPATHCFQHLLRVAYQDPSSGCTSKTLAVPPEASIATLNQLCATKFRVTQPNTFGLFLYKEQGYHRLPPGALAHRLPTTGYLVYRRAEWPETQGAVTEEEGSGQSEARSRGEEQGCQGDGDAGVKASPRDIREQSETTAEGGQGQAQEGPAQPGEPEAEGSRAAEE
# Sequence of 72 kDa type IV collagenase (P08253 whole entry): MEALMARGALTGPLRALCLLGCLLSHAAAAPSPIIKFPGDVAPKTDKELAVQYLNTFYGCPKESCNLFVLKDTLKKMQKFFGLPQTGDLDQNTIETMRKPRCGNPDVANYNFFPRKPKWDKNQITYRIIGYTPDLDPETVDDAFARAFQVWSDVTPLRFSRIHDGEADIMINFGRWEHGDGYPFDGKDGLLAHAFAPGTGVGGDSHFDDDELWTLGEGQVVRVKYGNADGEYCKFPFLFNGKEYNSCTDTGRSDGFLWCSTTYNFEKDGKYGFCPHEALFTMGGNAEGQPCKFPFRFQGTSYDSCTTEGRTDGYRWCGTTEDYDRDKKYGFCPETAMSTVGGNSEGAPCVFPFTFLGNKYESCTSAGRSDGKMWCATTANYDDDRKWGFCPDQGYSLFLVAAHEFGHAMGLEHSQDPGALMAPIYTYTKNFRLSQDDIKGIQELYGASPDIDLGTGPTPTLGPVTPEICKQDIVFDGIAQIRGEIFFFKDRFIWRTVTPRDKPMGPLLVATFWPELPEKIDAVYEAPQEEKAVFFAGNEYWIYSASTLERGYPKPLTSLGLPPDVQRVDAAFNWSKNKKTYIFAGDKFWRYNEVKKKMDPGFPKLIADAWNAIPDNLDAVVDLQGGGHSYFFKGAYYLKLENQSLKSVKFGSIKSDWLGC
# Sequence of Dual specificity protein phosphatase 3 (P51452 whole entry): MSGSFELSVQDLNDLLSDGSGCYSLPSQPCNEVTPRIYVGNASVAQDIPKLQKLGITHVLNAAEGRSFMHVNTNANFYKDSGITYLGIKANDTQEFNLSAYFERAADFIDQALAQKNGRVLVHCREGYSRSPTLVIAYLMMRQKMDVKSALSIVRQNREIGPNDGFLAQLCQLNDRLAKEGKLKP
# Sequence of Cytochrome P450 2C9 (P11712 whole entry): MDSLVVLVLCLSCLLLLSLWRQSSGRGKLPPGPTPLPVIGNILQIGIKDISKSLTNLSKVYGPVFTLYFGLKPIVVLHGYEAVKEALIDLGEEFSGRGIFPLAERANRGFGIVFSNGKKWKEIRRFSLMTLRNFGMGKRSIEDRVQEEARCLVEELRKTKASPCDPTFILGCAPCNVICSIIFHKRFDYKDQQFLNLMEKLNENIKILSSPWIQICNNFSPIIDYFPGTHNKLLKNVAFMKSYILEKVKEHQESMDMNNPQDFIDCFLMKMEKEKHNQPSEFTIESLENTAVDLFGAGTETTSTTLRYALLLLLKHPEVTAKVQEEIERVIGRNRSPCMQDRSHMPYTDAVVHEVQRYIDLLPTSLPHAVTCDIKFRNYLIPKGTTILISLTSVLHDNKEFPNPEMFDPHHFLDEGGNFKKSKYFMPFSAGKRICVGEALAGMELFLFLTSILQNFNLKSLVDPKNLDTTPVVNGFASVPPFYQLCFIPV
# Sequence of Photoreceptor-specific nuclear receptor (Q9Y5X4 whole entry): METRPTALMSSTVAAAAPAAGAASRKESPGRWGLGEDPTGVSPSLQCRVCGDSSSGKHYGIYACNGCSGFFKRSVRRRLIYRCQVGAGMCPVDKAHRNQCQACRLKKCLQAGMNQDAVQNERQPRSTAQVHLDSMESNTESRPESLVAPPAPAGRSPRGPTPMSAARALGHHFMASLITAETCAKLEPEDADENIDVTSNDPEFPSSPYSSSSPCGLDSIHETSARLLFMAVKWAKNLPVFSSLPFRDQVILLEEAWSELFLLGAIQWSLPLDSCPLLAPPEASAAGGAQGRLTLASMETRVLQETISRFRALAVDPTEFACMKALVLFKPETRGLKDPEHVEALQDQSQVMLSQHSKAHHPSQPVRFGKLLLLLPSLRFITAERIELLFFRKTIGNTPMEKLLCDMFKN
# Sequence of Nonstructural protein 1 (Q194T2 whole entry, the tested form may be a part): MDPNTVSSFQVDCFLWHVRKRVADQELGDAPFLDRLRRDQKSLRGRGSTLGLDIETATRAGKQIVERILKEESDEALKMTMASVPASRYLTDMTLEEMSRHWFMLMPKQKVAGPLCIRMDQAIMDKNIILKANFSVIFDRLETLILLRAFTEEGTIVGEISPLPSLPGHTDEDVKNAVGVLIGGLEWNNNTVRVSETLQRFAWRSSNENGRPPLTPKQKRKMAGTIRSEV
# Sequence of Cytochrome P450 2C19 (P33261 whole entry): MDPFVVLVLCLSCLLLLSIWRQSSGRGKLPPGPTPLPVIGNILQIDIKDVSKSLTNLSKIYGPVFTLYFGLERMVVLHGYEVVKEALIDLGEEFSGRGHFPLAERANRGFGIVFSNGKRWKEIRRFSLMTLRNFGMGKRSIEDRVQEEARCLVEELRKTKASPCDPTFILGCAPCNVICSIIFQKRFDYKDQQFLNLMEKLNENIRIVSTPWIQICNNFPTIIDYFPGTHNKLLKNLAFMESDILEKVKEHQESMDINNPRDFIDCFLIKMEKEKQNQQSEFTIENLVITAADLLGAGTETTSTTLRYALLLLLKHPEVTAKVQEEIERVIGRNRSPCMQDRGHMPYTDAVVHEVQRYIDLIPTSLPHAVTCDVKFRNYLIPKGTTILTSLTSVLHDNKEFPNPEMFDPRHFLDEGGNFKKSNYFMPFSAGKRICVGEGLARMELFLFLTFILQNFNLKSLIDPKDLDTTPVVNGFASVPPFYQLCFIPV
smiles,measurement,setting,value
O=C(Nc1nc(-c2nc3ccccc3s2)cs1)c1ccco1,IC50,[1],2.44 µM (active)
same,IC50,[2],> 100 µM (inactive)
same,IC50,Prothrombin,75.1 µM (active)
same,IC50,[3],10.1 µM (active)
same,IC50,[4],3.92 µM (active)
O=C(COc1ccc([N+](=O)[O-])cc1)Nc1nnc(-c2cccnc2)s1,IC50,[5],5.51 µM (active)
same,IC50,[6],59.9 µM (inactive)
same,IC50,[7],4.25 µM (active)
same,IC50,[8],2.44 µM (active)
O=C(NN=C1c2ccccc2-c2ccccc21)c1ccccn1,IC50,[2],> 100 µM (inactive)
same,IC50,Prothrombin,> 100 µM (inactive)
same,AC50,Cytochrome P450 2C9,7.08 µM (inconclusive)
same,AC50,Cytochrome P450 2C19,2.82 µM (inconclusive)
same,IC50,[3],24.4 µM (active)
c1ccc2c(c1)CCN(c1nc3cc4c(cc3s1)OCO4)C2,IC50,[9],2.96 µM (active)
same,EC50,[10],0.751 µM (active)
same,IC50,cells [11],> 29.9 µM (inactive)
same,EC50,cells [12],> 29.9 µM (inactive)
CN(C(=O)c1ccc(NC(=O)Cc2ccc(NC(=O)C3CCN(C(=O)c4ccccc4)CC3)cc2)cc1)C1CC1,IC50,[13],0.407 µM (active)
CC1NC(=O)NC1CCCCCC(=O)Nc1ccc(F)cc1 (stereo not given),IC50,[13],0.0187 µM (active)
same,AC50,[14],0.113 µM (active)
same,IC50,Nonstructural protein 1,0.979 µM (active)
CC(C)(C)C(=O)Nc1ccc(C(=O)Nc2cccc(Oc3ccc(C(=O)O)c(C(=O)O)c3)c2)cc1,IC50,[6],13.6 µM (active)
same,IC50,[7],38.4 µM (inactive)
same,IC50,[8],16.5 µM (active)
CCOc1ccc(C(C)=O)cc1COC(=O)c1ccccc1C(=O)N(C)Cc1ccccc1,AC50,[15],6.39 µM (active)
same,AC50,[16],3.55 µM (active)
same,AC50,[17],5.14 µM (active)
same,AC50,[18],4.87 µM (active)
COc1cc(C(C)=O)ccc1OCC(O)CNCC(O)c1ccccc1 (stereo not given),IC50,[9],12.3 µM (inactive)
same,EC50,[10],2.13 µM (active)
same,IC50,cells [11],> 29.9 µM (inactive)
same,EC50,cells [12],> 29.9 µM (inactive)
O=C(C(=O)c1cc(Br)ccc1O)c1cc(Br)ccc1O,EC50,cells [19],> 29.9 µM (inactive)
same,IC50,Galanin receptor type 3,1.1 µM (active)
